Data reported in patent US9790221B2, “Heteroaryl compounds as IRAK inhibitors and uses thereof” (Merck Patent GmbH, priority 2014, dated 2017).

Tests used:
[1] = tested on: TLR7 induced IL-6 secretion in human mononuclear cells (PBMC's); assay: TLR7 induced IL-6 in human PBMC's; format: cell-based; conditions: Homo sapiens, PBMC, read-out: TLR7 induced IL-6 secretion in hPBMC's (IC50)
Method: TLR7 Induced IL-6 in Human PBMC's
Human PBMC assay was used as one of the functional assay a to monitor the activity of IRAK1 and IRAK4 small molecule inhibitors on TLR7 induced IL-6 secretion in human mononuclear cells (PBMC's). Human PBMCs were prepared from buffy coats (whole blood enriched with leukocytes and platelets) obtained from healthy volunteers used either fresh or frozen are plated in assay media (RPMI+2% P/S/L-glu+10% HI-FBS) and pre-treated with compounds in DMSO/media (range of concentrations from 25 uM to 0.4 nM) or controls (0.25% DMSO) for 30 minutes at 37° C. in assay media. Following pre-treatment with IRAK1 and IRAK4 inhibitors, PBMC's were stimulated with TLR7 specific ligand (2 uM) overnight (16-18 hrs) at 37° C. After incubation supernatant was transferred to 384 well PE AlphaPlate-384 (6005350) and IL-6 is quantified using Perkin Elmer IL-6 Alpha LISA kit (AL223C). Plates were read on an Envision® plate reader with Alpha Technology®.

IRAK4 = IRAK4 (Homo sapiens (Human), UniProt Q9NWZ3); assay: IRAK4 enzymatic assay; format: biochemical
Sequence of IRAK4 (Q9NWZ3 whole entry): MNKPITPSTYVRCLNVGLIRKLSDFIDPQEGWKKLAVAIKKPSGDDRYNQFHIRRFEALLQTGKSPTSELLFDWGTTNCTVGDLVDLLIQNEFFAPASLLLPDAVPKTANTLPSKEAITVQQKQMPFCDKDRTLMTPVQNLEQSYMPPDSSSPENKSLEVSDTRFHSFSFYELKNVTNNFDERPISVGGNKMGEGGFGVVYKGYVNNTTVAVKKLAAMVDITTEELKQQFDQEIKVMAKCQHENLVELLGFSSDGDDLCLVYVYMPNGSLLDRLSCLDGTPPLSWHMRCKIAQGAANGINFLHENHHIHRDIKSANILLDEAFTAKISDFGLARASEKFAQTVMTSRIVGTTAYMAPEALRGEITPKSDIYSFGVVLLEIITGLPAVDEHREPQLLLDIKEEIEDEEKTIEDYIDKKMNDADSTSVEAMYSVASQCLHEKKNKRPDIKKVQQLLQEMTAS
Procedure, shortened: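 Recombinant His-TEV-IRAK4 (20 ng/well) phosphorylating biotinylated STK1 peptide (300 nM) with 2 μM ATP plus [^33P]ATP, 3 h at 30° C in pH 7.0 Hepes buffer with Mg2+ and Mn2+. Compounds 20 µM to 1 nM; EDTA stop, radioactivity captured on streptavidin FlashPlates.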

[2] = molecular target: IRAK1 (His-TEV-IRAK1 (194-712)) (Homo sapiens (Human), UniProt P51617); assay: IRAK1 enzymatic assay; format: biochemical
Sequence of IRAK1 (His-TEV-IRAK1 (194-712)) (P51617 194-712): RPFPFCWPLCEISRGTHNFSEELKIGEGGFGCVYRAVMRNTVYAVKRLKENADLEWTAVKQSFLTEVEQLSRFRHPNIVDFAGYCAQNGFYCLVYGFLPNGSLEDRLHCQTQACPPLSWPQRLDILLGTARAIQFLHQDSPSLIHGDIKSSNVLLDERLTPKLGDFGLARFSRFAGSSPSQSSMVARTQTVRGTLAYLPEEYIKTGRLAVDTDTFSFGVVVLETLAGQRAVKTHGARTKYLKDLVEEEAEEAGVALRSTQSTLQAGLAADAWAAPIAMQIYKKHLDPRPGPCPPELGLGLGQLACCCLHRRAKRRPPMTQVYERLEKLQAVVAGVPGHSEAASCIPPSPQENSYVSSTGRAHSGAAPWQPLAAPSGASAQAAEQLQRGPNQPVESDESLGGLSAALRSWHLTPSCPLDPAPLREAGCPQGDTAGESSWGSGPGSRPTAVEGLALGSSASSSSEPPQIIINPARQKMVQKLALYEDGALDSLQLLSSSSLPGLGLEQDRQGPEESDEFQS
Procedure, shortened: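 Recombinant His-TEV-IRAK1 (194-712), 15 ng/well, autophosphorylation with 1 μM ATP plus [33P]ATP, 3 h at 30° C in Hepes pH 7.0 buffer with MgCl2, DTT, EGTA, BSA and Triton; compounds from 20 µM to 1 nM. The reaction was stopped with EDTA, and radioactivity was counted in streptavidin FlashPlates.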

Compound	IC50 [1]	IC50 (IRAK4)	IC50 [2]
Cn1cc(-c2cccc(-c3ncc(-c4ccn(C)n4)c(NC4CCOC4)n3)c2)cn1 (stereo not drawn) [Example 119]	> 5000 nM	100 to 1000 nM	1000 to 5000 nM
Cn1cc(-c2cccc(-c3ncc(-c4cnn(C)c4)c(NCC4CCCC(O)C4)n3)c2)cn1 (stereo not drawn) [Example 123]	100 to 1000 nM	< 100 nM	100 to 1000 nM
Cn1cc(-c2cccc(-c3ncc(-c4ccn(C)n4)c(NC4CCCCNC4)n3)c2)cn1 (stereo not drawn) [Example 125]	100 to 1000 nM	100 to 1000 nM	> 5000 nM
Cc1nnc(-c2cnc(-c3cccc(-c4cnn(C)c4)c3)nc2NCCN2CCS(=O)(=O)CC2)s1 [Example 127]	100 to 1000 nM	< 100 nM	> 5000 nM
Cc1nnc(-c2cnc(-c3cccc(-c4cnn(C)c4)c3)nc2NC2CCC(N)CC2)s1 (stereo not drawn) [Example 128]	100 to 1000 nM	< 100 nM	100 to 1000 nM
Cc1nnc(-c2cnc(-c3cccc(-c4cnn(C)c4)c3)nc2N[C@H]2CC[C@@H](NS(C)(=O)=O)CC2)s1 [Example 129]	100 to 1000 nM	< 100 nM	100 to 1000 nM
Cn1cc(-c2cccc(-c3ncc(-c4cnn(C)c4)c(NCCC(C)(C)O)n3)c2)cn1 [Example 135]	100 to 1000 nM	< 100 nM	100 to 1000 nM
Cn1cc(-c2cccc(-c3ncc(-c4cnn(C)c4)c(NCC4CCC(F)(F)CC4)n3)c2)cn1 [Example 136]	1000 to 5000 nM	< 100 nM	100 to 1000 nM
Cn1cc(-c2cccc(-c3ncc(-c4cnn(C)c4)c(NC4CCOCC4)n3)c2)cn1 [Example 137]	100 to 1000 nM	< 100 nM	100 to 1000 nM
Cn1cc(-c2cccc(-c3ncc(-c4ccn(C)n4)c(NC4CCOCC4)n3)c2)cn1 [Example 138]	1000 to 5000 nM	< 100 nM	1000 to 5000 nM
CN(CC1CC(F)(F)C1)c1nc(-c2cccc(-c3cnn(C)c3)c2)ncc1-c1cnn(C)c1 [Example 141]	1000 to 5000 nM	100 to 1000 nM	1000 to 5000 nM
Cn1cc(-c2cccc(-c3ncc(-c4cnn(C)c4)c(N[C@H]4CC[C@H](N)CC4)n3)c2)cn1 [Example 143]	100 to 1000 nM	< 100 nM	100 to 1000 nM
Cc1nnc(-c2cnc(-c3cccc(-c4cnn(C)c4)c3)nc2NCCN2CCOCC2)s1 [Example 146]	1000 to 5000 nM	< 100 nM	> 5000 nM
Cn1cc(-c2cccc(-c3ncc(-c4cnn(C)c4)c(N[C@H]4CC[C@H](O)CC4)n3)c2)cn1 [Example 149]	100 to 1000 nM	< 100 nM	100 to 1000 nM
Cn1cc(-c2cccc(-c3ncc(-c4ccn(C)n4)c(NC4C5CCCC4CC(N)C5)n3)c2)cn1 (stereo not drawn) [Example 152]	100 to 1000 nM	< 100 nM	100 to 1000 nM
Cn1cc(-c2cccc(-c3ncc(-c4cnn(C)c4)c(NC4C5CCCC4CC(N)C5)n3)c2)cn1 (stereo not drawn) [Example 153]	100 to 1000 nM	< 100 nM	100 to 1000 nM
Cn1cc(-c2cccc(-c3ncc(-c4cnn(C)c4)c(NC[C@H]4CC[C@H](O)CC4)n3)c2)cn1 [Example 156]	100 to 1000 nM	< 100 nM	100 to 1000 nM
Cn1cc(-c2cccc(-c3ncc(-c4cnn(C)c4)c(NC4CC5(CCN(S(C)(=O)=O)C5)C4)n3)c2)cn1 (stereo not drawn) [Example 169]	> 5000 nM	< 100 nM	100 to 1000 nM
Cn1cc(-c2cccc(-c3ncc(-c4cnn(C)c4)c(N[C@@H]4CCN(S(C)(=O)=O)C4)n3)c2)cn1 [Example 171]	1000 to 5000 nM	< 100 nM	< 100 nM
Cn1cc(-c2cccc(-c3ncc(-c4cnn(C)c4)c(NCCCNS(C)(=O)=O)n3)c2)cn1 [Example 179]	1000 to 5000 nM	< 100 nM	100 to 1000 nM
Cn1cc(-c2cccc(-c3ncc(-c4cnn(C)c4)c(NCC4CC(O)C4)n3)c2)cn1 (stereo not drawn) [Example 181]	1000 to 5000 nM	< 100 nM	100 to 1000 nM

Compound	IC50 [1]	IC50 (IRAK4)	IC50 [2]
Cn1cc(-c2cccc(-c3ncc(-c4cnn(C)c4)c(N[C@H]4CC[C@H](NS(C)(=O)=O)CC4)n3)c2)cn1 [Example 182]	100 to 1000 nM	< 100 nM	< 100 nM
Cn1cc(-c2cccc(-c3ncc(-c4cnn(C)c4)c(N[C@H]4C[C@@H](NS(C)(=O)=O)C4)n3)c2)cn1 [Example 183]	1000 to 5000 nM	< 100 nM	100 to 1000 nM
Cc1nnc(-c2cnc(-c3cccc(-c4cnn(C)c4)c3)nc2NCCNS(C)(=O)=O)s1 [Example 184]	100 to 1000 nM	< 100 nM	100 to 1000 nM
Cn1cc(-c2cccc(-c3ncc(-c4cnn(C)c4)c(N[C@H]4CC[C@H](N)C4)n3)c2)cn1 [Example 185]	1000 to 5000 nM	< 100 nM	1000 to 5000 nM
Cn1cc(-c2cccc(-c3ncc(-c4cnn(C)c4)c(NC45CCC(N)(CC4)CC5)n3)c2)cn1 [Example 186]	100 to 1000 nM	< 100 nM	< 100 nM
Cn1cc(-c2cccc(-c3ncc(-c4cnn(C)c4)c(NC45CCC(NS(C)(=O)=O)(CC4)CC5)n3)c2)cn1 [Example 187]	100 to 1000 nM	< 100 nM	< 100 nM
Cn1cc(-c2cccc(-c3ncc(-c4cnn(C)c4)c(NC4CC(CN)C4)n3)c2)cn1 (stereo not drawn) [Example 188]	1000 to 5000 nM	< 100 nM	< 100 nM
Cn1cc(-c2cccc(-c3ncc(-c4cnn(C)c4)c(N[C@H]4CC[C@H](NS(C)(=O)=O)C4)n3)c2)cn1 [Example 190]	1000 to 5000 nM	< 100 nM	< 100 nM
Cn1cc(-c2cccc(-c3ncc(-c4cnn(C)c4)c(NC4CCC(CN)CC4)n3)c2)cn1 (stereo not drawn) [Example 194]	100 to 1000 nM	< 100 nM	100 to 1000 nM
Cn1cc(-c2cccc(-c3ncc(-c4cnn(C)c4)c(N[C@H]4C[C@@H](CNS(C)(=O)=O)C4)n3)c2)cn1 [Example 195, N-(3-{5-(1-Methyl-1H-pyrazol-4-yl)-2-[3-(1-methyl-1H-pyrazol-4-yl)-phenyl]-pyrimidin-4-ylamino}-cyclobutylmethyl)-methanesulfonamide]	1000 to 5000 nM	< 100 nM	< 100 nM
Cn1cc(-c2cccc(-c3ncc(-c4cnn(C)c4)c(N[C@H]4C[C@H](CNS(C)(=O)=O)C4)n3)c2)cn1 [Example 196, N-(3-{5-(1-Methyl-1H-pyrazol-4-yl)-2-[3-(1-methyl-1H-pyrazol-4-yl)-phenyl]-pyrimidin-4-ylamino}-cyclobutylmethyl)-methanesulfonamide]	1000 to 5000 nM	100 to 1000 nM	100 to 1000 nM
Cn1cc(-c2cccc(-c3ncc(-c4cnn(C)c4)c(NC4CC5CCC4N5S(C)(=O)=O)n3)c2)cn1 (stereo not drawn) [Example 199]	100 to 1000 nM	< 100 nM	100 to 1000 nM
Cn1cc(-c2cccc(-c3ncc(-c4cnn(C)c4)c(N[C@H]4CCC[C@H](O)[C@@H]4O)n3)c2)cn1 [Example 208, (1S,2R,3S)-3-{5-(1-Methyl-1H-pyrazol-4-yl)-2-[3-(1-methyl-1H-pyrazol-4-yl)-phenyl]-pyrimidin-4-ylamino}-cyclohexane-1,2-diol]	100 to 1000 nM	< 100 nM	100 to 1000 nM
Cc1nnc(-c2cnc(-c3cccc(-c4cnn(C)c4)c3)nc2NC2CCC(NS(=O)(=O)C3CC3)CC2)s1 (stereo not drawn) [Example 209]	100 to 1000 nM	< 100 nM	< 100 nM
CC(C)Nc1nc(-c2cccc(-c3cnn(C)c3)c2)ncc1-c1nnc(C2CCNCC2)s1 [Example 210]	100 to 1000 nM	< 100 nM	100 to 1000 nM
CC(=O)NC[C@H]1C[C@@H](Nc2nc(-c3cccc(-c4cnn(C)c4)c3)ncc2-c2cnn(C)c2)C1 [Example 211, N-(3-{5-(1-Methyl-1H-pyrazol-4-yl)-2-[3-(1-methyl-1H-pyrazol-4-yl)-phenyl]-pyrimidin-4-ylamino}-cyclobutylmethyl)-acetamide]	1000 to 5000 nM	100 to 1000 nM	100 to 1000 nM
Cn1cc(-c2cccc(-c3ncc(-c4cnn(C)c4)c(NCCCS(C)(=O)=O)n3)c2)cn1 [Example 213]	100 to 1000 nM	< 100 nM	< 100 nM
Cc1nnc(-c2cnc(-c3cccc(-c4cnn(C)c4)c3)nc2NC2CCC(F)(F)CC2)s1 [Example 214]	1000 to 5000 nM	< 100 nM	> 5000 nM
Cc1ccc(-c2cnc(-c3cccc(-c4cnn(C)c4)c3)nc2NC2CCN(S(C)(=O)=O)CC2)cn1 [Example 215]	100 to 1000 nM	< 100 nM	100 to 1000 nM
Cc1nnc(-c2cnc(-c3cccc(-c4cnn(C)c4)c3)nc2NCC(O)C(F)(F)F)s1 (stereo not drawn) [Example 216]	100 to 1000 nM	< 100 nM	100 to 1000 nM
Cn1cc(-c2cccc(-c3ncc(-c4cnn(C)c4)c(NCC4CCCOC4)n3)c2)cn1 (stereo not drawn) [Example 217]	1000 to 5000 nM	< 100 nM	100 to 1000 nM
